Results published in patent publication US10098883B2, “(Aza)pyridopyrazolopyrimidinones and indazolopyrimidinones and their use” (BAYER PHARMA AKTIENGESELLSCHAFT, priority 2013, dated 2018).
Where a name gives a salt, the structure may show the parent alone.

What follows are compounds tested on clot lysis (fibrinolysis) in human citrated plasma, tPA-induced (assay: Plasma-based clot lysis assay (5%)). Details: diluted human citrated plasma (platelet-poor, 5%), fibrinogen 3 μM, CaCl2 10 mM, tPA 0.2 nM, 37° C., OD 405 nm.
Format: biochemical
Protocol: B-2. Plasma-based Clot Lysis Assay (5%)
The clot-lysis test system configures the kinetics of clot formation and degradation in vitro and allows quantifying modulation of the process by selected test compounds.
The test compounds were dissolved in 1% acetic acid and further complemented with an equal volume of DMSO. The resulting stock solutions were serially diluted in 0.5% acetic acid/50% DMSO. 1 μL aliquots of these solutions were placed into 384 well microplates (Greiner, black, transparent bottom), followed by 30 μL of diluted human citrated plasma (platelet-poor, final concentration: 5%; supplemented with fibrinogen, final concentration: 3 μM; dilution buffer: 20 mM HEPES, 150 mM NaCl, 0.01% Brij (pH 7)). The reactions were started by addition of […] of CaCl2 (final concentration: 10 mM), and tPA (tissue plasminogen activator, final concentration: 0.2 nM) in dilution buffer, followed by an additional volume of 20 μL dilution buffer for improved mixing. The reactions were incubated at 37° C. Clot formation and degradation was monitored spectrophotometrically by kinetic optical density measurements at 405 nm. IC50 values were determined by comparing the resulting time courses with the time course of a blank control reaction.
In the case of `O=c1cc(C2CCNCC2)n2nc3nc(-c4ccc(F)cc4)cc(C(F)(F)F)c3c2[nH]1` [Example 42, 8-(4-Fluorophenyl)-4-(piperidin-4-yl)-10-(trifluoromethyl)pyrido[2′,3′:3,4]pyrazolo[1,5-a]pyrimidin-2(1H)-one hydrochloride], the IC50 is reported as 110 nM.
`O=c1cc(C2CCNCC2)n2nc3cncc(Br)c3c2[nH]1` [Example 43, 10-Bromo-4-(piperidin-4-yl)pyrido[3′,4′:3,4]pyrazolo[1,5-a]pyrimidin-2(1H)-one hydrochloride] gave an IC50 of 100 nM.
`O=c1cc(C2CCNCC2)n2nc3nc(-c4ccccc4)ccc3c2[nH]1` [Example 44, 8-Phenyl-4-(piperidin-4-yl)pyrido[2′,3′:3,4]pyrazolo[1,5-a]pyrimidin-2(1H)-one hydrochloride] was tested, and the IC50 was 48 nM.
Compound `O=c1cc(C2CCNCC2)n2nc3ncc(-c4ccccc4)cc3c2[nH]1` [Example 45, 9-Phenyl-4-(piperidin-4-yl)pyrido[2′,3′:3,4]pyrazolo[1,5-a]pyrimidin-2(1H)-one hydrochloride] has an IC50 of 37 nM.
Compound `O=c1cc(C2CCNCC2)n2nc3nccc(-c4ccccc4)c3c2[nH]1` [Example 46, 10-Phenyl-4-(piperidin-4-yl)pyrido[2′,3′:3,4]pyrazolo[1,5-a]pyrimidin-2(1H)-one hydrochloride] has an IC50 of 17 nM.
`Cc1ccnc2nn3c(C4CCNCC4)cc(=O)[nH]c3c12` [Example 47, 10-methyl-4-(piperidin-4-yl)pyrido[2′,3′:3,4]pyrazolo[1,5-a]pyrimidin-2(1H)-one hydrochloride] was tested, and the IC50 was 24 nM.
`O=c1cc(C2CCNCC2)n2nc3ccc(I)cc3c2[nH]1` [Example 48, 9-Iodo-4-(piperidin-4-yl)pyrimido[1,2-b]indazol-2(1H)-one hydrochloride] gave an IC50 of 36 nM.
In the case of `O=c1cc(C2CCNCC2)n2nc3ccncc3c2[nH]1` [Example 49, 4-(Piperidin-4-yl)pyrido[4′,3′:3,4]pyrazolo[1,5-a]pyrimidin-2(1H)-one], the IC50 is reported as 36 nM.
`C[C@H]1C[C@H](c2cc(=O)[nH]c3c4c(Br)cccc4nn23)CCN1` [Example 50, (−)-trans-10-Bromo-4-(2-methylpiperidin-4-yl)pyrimido[1,2-b]indazol-2(1H)-one hydrochloride] gave an IC50 of 14 nM.
Compound `C[C@H]1C[C@H](c2cc(=O)[nH]c3c4c(-c5ccccc5)ccnc4nn23)CCN1` [Example 51, (−)-trans-4-(2-Methylpiperidin-4-yl)-10-phenylpyrido[2′,3′:3,4]pyrazolo[1,5-a]pyrimidin-2(1H)-one hydrochloride] has an IC50 of 15 nM.
`CCOc1cccc2nn3c([C@@H]4CCN[C@@H](C)C4)cc(=O)[nH]c3c12` [Example 52, (−)-trans-10-Ethoxy-4-(2-methylpiperidin-4-yl)pyrimido[1,2-b]indazol-2(1H)-one hydrochloride] was tested, and the IC50 was 13 nM.
In the case of `COc1ccc(-c2cccc3nn4c(C5CCNCC5)cc(=O)[nH]c4c23)cc1` [Example 54, 10-(4-Methoxyphenyl)-4-(piperidin-4-yl)pyrimido[1,2-b]indazol-2(1H)-one hydrochloride], the IC50 is reported as 15 nM.
In the case of `O=c1cc(C2CCNCC2)n2nc3cccc(-c4ccc(C(F)(F)F)cc4)c3c2[nH]1` [Example 55, 4-(Piperidin-4-yl)-10-[4-(trifluoromethyl)phenyl]pyrimido[1,2-b]indazol-2(1H)-one hydrochloride], the IC50 is reported as 14 nM.
`O=c1cc(C2CCNCC2)n2nc3cccc(-c4ccccc4)c3c2[nH]1` [Example 56, 10-Phenyl-4-(piperidin-4-yl)pyrimido[1,2-b]indazol-2(1H)-one hydrochloride] gave an IC50 of 14 nM.
Work on `O=c1cc(C2CCNCC2)n2nc3cccc(-c4cccnc4)c3c2[nH]1` [Example 58, 4-(Piperidin-4-yl)-10-(pyridin-3-yl)pyrimido[1,2-b]indazol-2(1H)-one hydrochloride] yielded an IC50 of 15 nM.
For `O=c1cc(C2CCNCC2)n2nc3cccc(-c4ccncc4)c3c2[nH]1` [Example 59, 4-(Piperidin-4-yl)-10-(pyridin-4-yl)pyrimido[1,2-b]indazol-2(1H)-one hydrochloride], the IC50 was 16 nM.
For `O=c1cc(C2CCNCC2)n2nc3cccc(C4CC4)c3c2[nH]1` [Example 61, 10-Cyclopropyl-4-(piperidin-4-yl)pyrimido[1,2-b]indazol-2(1H)-one hydrochloride], the IC50 was 24 nM.
Compound `CC(C)c1cccc2nn3c(C4CCNCC4)cc(=O)[nH]c3c12` [Example 62, 10-Isopropyl-4-(piperidin-4-yl)pyrimido[1,2-b]indazol-2(1H)-one hydrochloride] has an IC50 of 18 nM.
In the case of `O=c1cc(C2CCNCC2)n2nc3cccc(C4CCCC4)c3c2[nH]1` [Example 63, 10-Cyclopentyl-4-(piperidin-4-yl)pyrimido[1,2-b]indazol-2(1H)-one hydrochloride], the IC50 is reported as 13 nM.
`O=c1cc(C2CCNCC2)n2nc3cccc(-c4ccccc4Cl)c3c2[nH]1` [Example 64, 10-(2-Chlorophenyl)-4-(piperidin-4-yl)pyrimido[1,2-b]indazol-2(1H)-one hydrochloride] gave an IC50 of 19 nM.
In the case of `COc1ccccc1-c1cccc2nn3c(C4CCNCC4)cc(=O)[nH]c3c12` [Example 65, 10-(2-Methoxyphenyl)-4-(piperidin-4-yl)pyrimido[1,2-b]indazol-2(1H)-one hydrochloride], the IC50 is reported as 25 nM.
Compound `O=c1cc(C2CCNCC2)n2nc3cccc(Cl)c3c2[nH]1` [Example 66, 10-Chloro-4-(piperidin-4-yl)pyrimido[1,2-b]indazol-2(1H)-one] has an IC50 of 15 nM.
Compound `O=c1cc(C2CCNCC2)n2nc3cccc(-c4ccccc4C(F)(F)F)c3c2[nH]1` [Example 67, 4-(Piperidin-4-yl)-10-[2-(trifluoromethyl)phenyl]pyrimido[1,2-b]indazol-2(1H)-one hydrochloride] has an IC50 of 13 nM.
`Cc1ccc2nn3c(C4CCNCC4)cc(=O)[nH]c3c2c1Cl` [Example 69, 10-Chloro-9-methyl-4-(piperidin-4-yl)pyrimido[1,2-b]indazol-2(1H)-one hydrochloride] showed an IC50 of 20 nM.
Compound `O=c1cc(C2CCNCC2)n2nc3ccc(F)c(Br)c3c2[nH]1` [Example 70, 10-Bromo-9-fluoro-4-(piperidin-4-yl)pyrimido[1,2-b]indazol-2(1H)-one hydrochloride] has an IC50 of 35 nM.
Work on `O=c1cc(C2CCNCC2)n2nc3c(F)ccc(Br)c3c2[nH]1` [Example 71, 10-Bromo-7-fluoro-4-(piperidin-4-yl)pyrimido[1,2-b]indazol-2(1H)-one hydrochloride] yielded an IC50 of 15 nM.
`CCC(C)c1cccc2nn3c(C4CCNCC4)cc(=O)[nH]c3c12` (centres unmarked) [Example 72, 10-sec-Butyl-4-(piperidin-4-yl)pyrimido[1,2-b]indazol-2(1H)-one hydrochloride] was tested, and the IC50 was 14 nM.
For `CC(C)Cc1cccc2nn3c(C4CCNCC4)cc(=O)[nH]c3c12` [Example 73, 10-Isobutyl-4-(piperidin-4-yl)pyrimido[1,2-b]indazol-2(1H)-one hydrochloride], the IC50 was 23 nM.
With `Cc1ccc2nn3c(C4CCNCC4)cc(=O)[nH]c3c2c1Br` [Example 74, 10-Bromo-9-methyl-4-(piperidin-4-yl)pyrimido[1,2-b]indazol-2(1H)-one hydrochloride] the IC50 was 15 nM.
In the case of `Cc1ccc(Br)c2c1nn1c(C3CCNCC3)cc(=O)[nH]c21` [Example 75, 10-Bromo-7-methyl-4-(piperidin-4-yl)pyrimido[1,2-b]indazol-2(1H)-one hydrochloride], the IC50 is reported as 16 nM.
Compound `CC(C)Oc1cccc2nn3c(C4CCNCC4)cc(=O)[nH]c3c12` [Example 76, 10-Isopropoxy-4-(piperidin-4-yl)pyrimido[1,2-b]indazol-2(1H)-one hydrochloride] has an IC50 of 15 nM.
`O=c1cc(C2CCNCC2)n2nc3ccc(F)c(-c4ccccc4)c3c2[nH]1` [Example 77, 9-Fluoro-10-phenyl-4-(piperidin-4-yl)pyrimido[1,2-b]indazol-2(1H)-one hydrochloride] gave an IC50 of 11 nM.
`O=c1cc(C2CCNCC2)n2nc3cccc(-c4c(F)cccc4F)c3c2[nH]1` [Example 78, 10-(2,6-Difluorophenyl)-4-(piperidin-4-yl)pyrimido[1,2-b]indazol-2(1H)-one hydrochloride] gave an IC50 of 15 nM.
Work on `Cc1cc(Cl)c2c(c1)nn1c(C3CCNCC3)cc(=O)[nH]c21` [Example 79, 10-Chloro-8-methyl-4-(piperidin-4-yl)pyrimido[1,2-b]indazol-2(1H)-one hydrochloride] yielded an IC50 of 11 nM.

Same assay, conditions: diluted human citrated plasma (platelet-poor, 5%), fibrinogen 3 μM, CaCl2 10 mM, tPA 0.2 nM, 37° C., OD 405 nm; hydrochloride
Work on `N#Cc1cccc2nn3c(C4CCNCC4)cc(=O)[nH]c3c12` [Example 53, 2-Oxo-4-(piperidin-4-yl)-1,2-dihydropyrimido[1,2-b]indazole-10-carbonitrile hydrochloride] yielded an IC50 of 10 nM.
`O=c1cc(C2CCNCC2)n2nc3cccc(-c4ccccc4F)c3c2[nH]1` [Example 57, 10-(2-Fluorophenyl)-4-(piperidin-4-yl)pyrimido[1,2-b]indazol-2(1H)-one hydrochloride] gave an IC50 of 13 nM.
For `O=c1cc(C2CCNCC2)n2nc3cccc(Br)c3c2[nH]1` [Example 60, 10-Bromo-4-(piperidin-4-yl)pyrimido[1,2-b]indazol-2(1H)-one hydrochloride], the IC50 was 14 nM.
For `C[C@H]1C[C@H](c2cc(=O)[nH]c3c4c(Cl)cccc4nn23)CCN1` [Example 68, (−)-trans-10-Chloro-4-(2-methylpiperidin-4-yl)pyrimido[1,2-b]indazol-2(1H)-one hydrochloride], the IC50 was 25 nM.
